Assay: CLEAR OUTCOMES trial: LDL-cholesterol, hsCRP and other lipid/biomarker end points
Assay type: in vivo, human
Text: The CLEAR OUTCOMES trial was a randomized, placebo-controlled, double-blind trial that enrolled patients at 1250 sites in 32 countries. An independent Data Monitoring Committee reviewed safety and efficacy data during the trial.
Patients 18 to 85 years of age were eligible for enrollment if they met either of two criteria for increased cardiovascular risk, a prior cardiovascular event (secondary prevention) or clinical features that placed them at high risk for a cardiovascular event (primary prevention). (Nicholls S, Lincoff A M, Bays H E, et al. Rationale and design of the CLEAR-outcomes trial: Evaluating the effect of bempedoic acid on cardiovascular events in patients with statin intolerance. Am Heart J. 2021 May; 235: 104-112) All patients provided written informed consent. Patients had to report statin intolerance due to an adverse effect that started or increased during statin therapy and resolved or improved after statin therapy was discontinued. Patients could be enrolled if they tolerated a very low average daily statin dose (e.g., an average daily dose of rosuvastatin <5 mg, atorvastatin <10 mg, simvastatin <10 mg, lovastatin <20 mg, pravastatin <40 mg, fluvastatin <40 mg, or pitavastatin <2 mg). Other lipid-lowering therapies were permitted, including ezetimibe, niacin, bile acid resins, fibrates, and/or proprotein convertase subtilisin kexin type 9 (PCSK9) inhibitors. Full inclusion and exclusion criteria are provided in Nicholls et al. (Am Heart J. 2021).
Eligible patients entered a 4-week run-in period during which patients were treated with single-blind placebo. If patients were intolerant to placebo treatment or if adherence was <80% by tablet count, they were not eligible for randomization. Patients who successfully completed the run-in period were randomly assigned in a 1:1 ratio to receive bempedoic acid at an oral dose of 180 mg or matching placebo, administered daily. Beginning 6 months after enrollment, the central laboratory notified the investigator if the patient's LDL-cholesterol level was ≥25% higher than baseline. These patients were counseled on healthy dietary guidelines and reminded to take all lipid-regulating medications. If repeat testing confirmed that LDL-cholesterol value met the threshold criteria, the provider could adjust the lipid-lowering treatment regimen per standard of care and local guidelines.
This was an event-driven trial designed to provide at least 90% power to detect a 15% relative risk reduction for the primary composite end point at an overall two-sided significance level of 0.05. The trial required a minimum of 1620 primary composite events with >24 months of follow-up for all patients and at least 810 first key secondary end points. The average treatment duration was estimated to be 42 months and a lost-to-follow-up rate of 1% per year. Assuming a 3.59% annual event rate in the placebo group, enrollment of 12,600 patients was required, subsequently amended to 14,000. There were no interim efficacy analyses. A hierarchical approach was prespecified to evaluate sequentially each of the six key secondary efficacy end points with statistical significance at each step required to test the next hypothesis, thereby preserving the study-wise Type I error rate at 5%. All analyses were based on the intent-to-treat principle. The primary efficacy end point was analyzed using Cox proportional hazards model with treatment as a factor to generate the hazard ratio (HR) and 95% confidence interval (CI). The p-value was obtained from a log-rank test.

[1] = Inadequately Controlled Diabetes at Baseline, median
[2] = Inadequately Controlled Diabetes at Baseline, observed mean
[3] = median, 180 mg oral daily, N = 6992
[4] = observed mean, 180 mg oral daily, N = 6992

For CC(C)(CCCCCC(O)CCCCCC(C)(C)C(=O)O)C(=O)O [Bempedoic Acid, Bempedoic acid], the “Median change from baseline to month 6 in hsCRP” value (180 mg oral daily, N = 6992) was −22.2%, the “Change from baseline to Month 6 in fasting glucose” value (All patients, median) was -1.0 mg/dL and the “Change from baseline to Month 12 in fasting glucose” value (All patients, median) was 0.0 mg/dL. For the same molecule, the “Change from baseline to Month 6 in HbA1c (%)” value (All patients, observed mean) was −0.003%, the “Change from baseline to Month 12 in HbA1c (%)” value (All patients, observed mean) was 0.04% and the “Change from baseline to Month 6 in fasting glucose” value [1] was -4.0 mg/dL. For the same molecule, the “Change from baseline to Month 12 in fasting glucose” value [1] was -2.75 mg/dL, the “Change from baseline to Month 6 in HbA1c (%)” value [2] was −0.20% and the “Change from baseline to Month 12 in HbA1c (%)” value [2] was −0.06%. For the same molecule, the “Change from baseline to month 12 in HbA1C in patients with inadequately controlled type 2 diabetes mellitus” value (adjusted for baseline HbA1c, pattern-mixed model, 180 mg oral daily) was −0.04%, the “Mean change from baseline to month 6 in mean LDL-C” value (adjusted for baseline LDL-C, pattern-mixed model, 180 mg oral daily, N = 6992) was −21.1% and the “reduction of hsCRP” value (after 6 months treatment, compared with placebo, median baseline 2.3 mg/L) was 21.6%. For the same molecule, the “Change from baseline to month 12 in HbA1C in patients with inadequately controlled type 2 diabetes mellitus, Difference (95% CI)” value (difference vs placebo) was −0.03%, the “Mean change from baseline to month 6 in mean LDL-C, Difference (95% CI)” value (difference vs placebo) was −20.3% and the “Median change from baseline to month 6 in hsCRP, Difference (95% CI)” value (difference vs placebo) was −21.6%. For the same molecule, the “Percent change from baseline to Month 6 in triglycerides” value [3] was −3.4%, the “Percent change from baseline to Month 12 in triglycerides” value [3] was −4.8% and the “Percent change from baseline to Month 6 in HDL-C” value [4] was −5.8% ±. For the same molecule, the “Percent change from baseline to Month 6 in non-HDL-C” value [4] was −17.2% ±, the “Percent change from baseline to Month 6 in total cholesterol” value [4] was −16.9% ± and the “Percent change from baseline to Month 12 in HDL-C” value [4] was −5.7% ±. The “Percent change from baseline to Month 12 in non-HDL-C” value [4] was −17.1% ±, the “Percent change from baseline to Month 12 in total cholesterol” value [4] was −14.8% ± and the “Percent change from baseline to Month 24 in non-HDL-C” value [4] was −16.2% ±.

Source: patent US20240226048A1, “METHODS OF TREATMENT USING BEMPEDOIC ACID” (Esperion Therapeutics, Inc., priority 2023, published 2024)
